Test results published in patent publication US12465580B2, “Substituted fatty acids for treating non-alcoholic steatohepatitis” (BASF AS, priority 2015, dated 2025).

Key:
[1] = test system: APOE*3Leiden.CETP double transgenic mice; experiment: Fecal bile acid content in diet induced NAFLD/NASH mouse model; type: in vivo; details: for Total bile acids (fecal), AVG ± SD: ApoE*3L-CETP double transgenic mice, feces
Method: (§1) The APOE*3Leiden.CETP double transgenic mouse is expressing a variant of the human apolipoprotein E3 (APOE3), the APOE*3Leiden, in addition to the human apolipoprotein C1 (APOC1) and CETP. […] By increasing the cholesterol content of the diet in this model, all the characteristics of human NASH develop.
(§2) Studies were performed in APOE*3Leiden.CETP mice placed on a high fat diet (24% fat w/w) with varying cholesterol content (0.25-1% cholesterol w/w). In one study (using 1% cholesterol w/w), after a 3 weeks run-in period 17 (20%) low-responder mice were removed from the study and the remaining 65 mice were sub-divided into groups of 12 mice each (+5 in the control group), matched for plasma cholesterol, triglycerides, blood glucose, body weight and age (t=0) and treatment was started. The mice received a daily gavage between 07 hr00 and 10 hr00 with either Compound N, Reference A or control (corn oil). After 4, 8, 12, 16 and 20 weeks of treatment blood samples were taken after a 5 hour fasting period (also 5 hours after compound or vehicle administration). Plasma cholesterol and triglycerides were measured. After 14 weeks of treatment 5 representative mice from the control group were sacrificed in order to assess the NASH development and to determine the termination of the study. After 20 weeks of treatment mice were sacrificed by CO2 asphyxiation, heparin heart blood was sampled and tissues were collected. Hepatic steatosis, inflammation and collagen content were analyzed.
(§3) A further study was performed in APOE*3Leiden.CETP mice with a 4-week active treatment arm in mice placed on a high fat diet (24% fat and 0.25% cholesterol diet, both w/w) to collect additional metabolic data.

[2] = test system: APOE*3Leiden.CETP double transgenic mice; experiment: Hepatic fibrosis (collagen content) in diet induced NAFLD/NASH mouse model; type: in vivo; details: for Fibrosis, Hydroxyprolin/Prolin, Mean ± SD: ApoE*3L-CETP double transgenic mice, hepatic collagen content, after 20 weeks of treatment
Method: as §1, §2

[3] = test system: APOE*3Leiden.CETP double transgenic mice; details: earlier study; cited from earlier work
[4] = test system: APOE*3Leiden.CETP double transgenic mice; experiment: Hepatic cholesterol content (liver lipids) in diet induced NAFLD/NASH mouse model; type: in vivo; details: for Effect on hepatic cholesterol ester vs control: Compound N p<0.001, Reference A p<0.05; for Liver lipids, Cholesterol ester (CE in FIG. 1), AVG ± SD / Liver lipids, Free cholesterol (FC in FIG. 1), AVG ± SD: ApoE*3L-CETP mice, high fat diet, 0.25% cholesterol w/w, daily gavage
Method: as §1, §2, §3
A mild decrease in cholesterol ester was also observed with Reference A (p<0.05). A 43% reduction in total hepatic cholesterol (statistics not performed).

[5] = test system: APOE*3Leiden.CETP double transgenic mice; experiment: Hepatic inflammation (number of foci, inflammation score) in diet induced NAFLD/NASH mouse model; type: in vivo; details: for Inflammation Score (0-3), Mean ± SD / Inflammation, Number of foci, Mean ± SD: ApoE*3L-CETP mice, high fat/cholesterol diet, liver after 20 weeks of treatment
Method: as §1, §2

[6] = test system: APOE*3Leiden.CETP double transgenic mice; experiment: Hepatic steatosis (macrovesicular and microvesicular) in diet induced NAFLD/NASH mouse model; type: in vivo; details: for Steatosis as % of the liver, Macrovesicular, Mean ± SD / Steatosis as % of the liver, Microvesicular, Mean ± SD: ApoE*3L-CETP mice, high fat/cholesterol diet, liver after 20 weeks of treatment; for Effect on macrovesicular steatosis vs control: Compound N p<0.001 vs. control
Method: as §1, §2

[7] = test system: APOE*3Leiden.CETP double transgenic mice; experiment: Total plasma cholesterol in diet induced NAFLD/NASH mouse model; type: in vivo
Method: as §1, §2, §3
Plasma HDL cholesterol values were adoubled (p<0.001, data not shown), underlying the fact that the reduction in plasma cholesterol was specific to the atherogenic apoB particle associated cholesterol fraction.

SMILES | Total bile acids (fecal), AVG ± SD [1] | Fibrosis, Hydroxyprolin/Prolin, Mean ± SD [2] | Effect on plasma cholesterol, previously shown [3] | Effect on hepatic cholesterol ester vs control ([4]; 0.25% cholesterol diet w/w) | Liver lipids, Cholesterol ester (CE in FIG. 1), AVG ± SD [4] | Liver lipids, Free cholesterol (FC in FIG. 1), AVG ± SD [4] | Inflammation Score (0-3), Mean ± SD [5] | Inflammation, Number of foci, Mean ± SD [5] | Steatosis as % of the liver, Macrovesicular, Mean ± SD [6] | Steatosis as % of the liver, Microvesicular, Mean ± SD [6] | Effect on macrovesicular steatosis vs control [6] | also measured
CC/C=C\C/C=C\C/C=C\C/C=C\C/C=C\CCCCSC(CC)(CC)C(=O)O [Compound N, 2-ethyl-2-((5Z,8Z,11Z,14Z,17Z)-icosa-5,8,11,14,17-pentaenylthio)butanoic Acid] | 3.2 ± 0.6 μmol/100 gr mouse/day | 0.027 ± 0.007 | significantly decrease plasma cholesterol | significant decrease | 10.6 ± 2.1 μg lipid/mg liver protein | 9.8 ± 1.2 μg lipid/mg liver protein | 0.6 ± 0.8 | 0.6 ± 0.6 | 1.1 ± 1.0% | 57.9 ± 25.4% | abolished macrovesicular steatosis | Reduction in fecal bile acid excretion ([1]; vs control, p=0.006): 50%; Reduction in hepatic collagen content ([2]; compared to control animals, p<0.005): 30%; Reduction in total hepatic cholesterol ([4]; 0.25% cholesterol diet w/w, statistics not performed): 43%; Effect on total inflammation score ([5]; vs control): significant reduction; Reduction in the number of inflammatory foci ([5]; vs control, p<0.001): approximately 85%; Reduction in total plasma cholesterol ([7]; after 4 weeks versus control, p<0.001): 52%; Plasma HDL cholesterol values ([7]; p<0.001, data not shown): doubled; Total plasma cholesterol, t = 0, AVG ± SD ([7]; t = 0 weeks (baseline, start of treatment)): 6.4 ± 1.1 mM; Total plasma cholesterol, t = 2, AVG ± SD ([7]; t = 2 weeks of treatment): 4.2 ± 0.7 mM; Total plasma cholesterol, t = 4, AVG ± SD ([7]; t = 4 weeks of treatment): 4.7 ± 1.3 mM
CN(CCOc1ccc(CC2SC(=O)NC2=O)cc1)c1ccccn1 (stereo not drawn) [Rosiglitazone] |  | 0.036 ± 0.007 |  |  |  |  | 1.7 ± 1.2 | 1.6 ± 1.6 | 14.3 ± 20.2% | 52.5 ± 18.4% | No significant effect | 
CC/C=C\C/C=C\C/C=C\C/C=C\C/C=C\CCCCOC(CC)C(=O)O (stereo not drawn) [Reference A, 2-((5Z,8Z,11Z,14Z,17Z)-icosa-5,8,11,14,17-pentaenyloxy)butanoic acid, reference compound] | 4.0 ± 1.2 μmol/100 gr mouse/day |  | significantly decrease plasma cholesterol | mild decrease | 17.0 ± 3.7 μg lipid/mg liver protein | 9.5 ± 1.3 μg lipid/mg liver protein | 1.9 ± 1.2 | 1.9 ± 1.3 | 21.2 ± 15.0% | 34.6 ± 11.8% | No significant effect | Effect on fecal bile acid excretion vs control ([1]; p<0.05 vs. control): milder yet significant decrease; Effect on inflammatory foci vs control ([5]; Reference A p<0.01): milder reduction
